What was measured:
Type in all cases: cell-based
[1] = system: Enterococcus faecalis (gram positive); test: Zone of inhibition on agar, antibiotic-coated composite hernia patch segments; conditions: hernia patch (polypropylene mesh/PTFE) segment 10x10x2 mm, coating solution 100 mg/ml of each antibiotic, long axis perpendicular to agar; for zone of inhibition at 100000 µg/mL: Enterococcus faecalis
Description: (§1) The device used in this example is a composite hernia patch with polypropylene mesh on one side and polytetrafluoroethylene (PTFE) on the other side. Antibiotics were incorporated onto devices by using a patented method (U.S. Pat. No. 6,589,591) that utilized coating solutions that contained 100 mg/ml of minocycline; 100 mg/ml tobramycin; 100 mg/ml gentamicin; 100 mg/ml minocycline and 100 mg/ml tobramycin (minocycline dissolved first); or 100 mg/ml minocycline and 100 mg/ml gentamicin (minocycline dissolved first). The tested square device segments were 10 mm (long)×10 mm (wide)×2 mm (thick). The device segments were placed onto agar with their long axis perpendicular to the agar (i.e. only 2 mm of the segment was in contact with the agar). All zone of inhibition are expressed in mm, and table 1 summarizes the results of the zones of inhibition.

[2] = system: Staphyulococcus aureus (gram positive); test: as above; conditions: hernia patch (polypropylene mesh/PTFE) segment 10x10x2 mm, coating solution 100 mg/ml of each antibiotic, long axis perpendicular to agar
Description: as §1

[3] = system: Escherichia coli (gram negative); test: as above; conditions: hernia patch (polypropylene mesh/PTFE) segment 10x10x2 mm, coating solution 100 mg/ml of each antibiotic, long axis perpendicular to agar; for zone of inhibition at 100000 µg/mL: Escherichia coli
Description: as §1

[4] = system: Staphylococcus epidermidis; test: Zone of inhibition on agar, antibiotic-coated polyurethane central venous catheter segments; conditions: 7-french polyurethane central venous catheter segment 10x2 mm, coating solution 100 mg/ml of each antibiotic, long axis parallel to agar; for zone of inhibition at 100000 µg/mL: Staphylococcus epidermidis
Description: The device used in this example is a 7-french, polyurethane central venous catheter. Antibiotics were incorporated onto devices by using a patented method (U.S. Pat. No. 6,589,591) that utilized coating solutions that contained 100 mg/ml of minocycline; 100 mg/ml tobramycin; 100 mg/ml gentamicin; 100 mg/ml minocycline and 100 mg/ml tobramycin (minocycline dissolved first); or 100 mg/ml minocycline and 100 mg/ml gentamicin (minocycline dissolved first). The tested catheter segments were 10 mm (long)×2 mm (wide). The cather segments were placed onto agar with their long axis parerrel to the agar. All zone of inhibition are expressed in mm, and table 2 summarizes the results of the zones of inhibition.

Compound	zone of inhibition at 100000 µg/mL [1] [mm]	zone of inhibition at 100000 µg/mL [2] [mm]	zone of inhibition at 100000 µg/mL [3] [mm]	zone of inhibition at 100000 µg/mL [4] [mm]	zone of inhibition, Enterococcus faecalis (gram positive) [1] [mm]	zone of inhibition, Staphyulococcus aureus (gram positive) [2] [mm]	zone of inhibition, Escherichia coli (gram negative) [3] [mm]	zone of inhibition, Staphylococcus epidermidis [4] [mm]
CN(C)c1ccc(O)c2c1C[C@H]1C[C@H]3[C@H](N(C)C)C(O)=C(C(N)=O)C(=O)[C@@]3(O)C(O)=C1C2=O [Minocycline, minocycline]	3	11	3	30				
NC[C@H]1O[C@H](O[C@H]2[C@H](O)[C@@H](O[C@H]3O[C@H](CO)[C@@H](O)[C@H](N)[C@H]3O)[C@H](N)C[C@@H]2N)[C@H](N)C[C@@H]1O [Tobramycin, tobramycin]	9	12	18	14				
gentamicin					0	14	11	6

Source: patent publication US20070093894A1, “Incorporation of antimicrobial combinations onto devices to reduce infection” (Baylor College of Medicine, priority 2005, published 2007)
